The text below walks through data of US8367707B2, “Pest control agents” (Meiji Seika Pharma Co., Ltd., priority 2005, dated 2013).

Structures are written as SMILES.

Experiment [1] deals with larvae of Helicoverpa zea. As to conditions: Applied and Environmental Microbiology (1995), 61(12), 4429-35; cited from earlier work.
For experiment [2], the system named is Plutella xylostella L larvae. As to conditions: WO 2004/060065; cited from earlier work.
The next experiment has as its system Tenebrio molitor L. As to conditions: WO 2004/060065; cited from earlier work.
A further experiment has as its system Helicoverpa armigera. The experiment is described as follows: Test Example 4: pesticidal effect against Helicoverpa armigera, cabbage leaf disk. It counts as in vivo. As to conditions: 100 ppm; third instar larva on cabbage leaf disk; three days after treatment, 25° C. An excerpt:
A cabbage leaf disk having a diameter of 2.8 cm was placed is in a plastic cup. Test compounds, which had been diluted to a predetermined concentration by the addition of a 50% aqueous acetone solution (Tween 20, 0.05% added), were spreaded over the cabbage leaf disk by means of a spray gun, and the cabbage leaf disk was then air dried. A larva at the third instar of Helicoverpa armigera was released in the cup. The cup was then lidded, and the larva was reared in the temperature-controlled room (25° C.). […] The test was repeated 5 times. Further, the death rate of the larvae were calculated in the same manner as in Test Example 1.

Take `CC(=O)OCC1(C)C(OC(C)=O)CCC2(C)C1CC(OC(C)=O)C1(C)Oc3cc(-c4cccnc4)oc(=O)c3C(O)C21` (stereo not shown) [pyripyropene A]: the “insecticidal activity against larvae of Helicoverpa zea” value in experiment [1] is “insecticidal activity”. Also, in experiment [2], the “insecticidal activity against Plutella xylostella L larvae” value is on record as “insecticidal activity”. The “insecticidal activity against Tenebrio molitor L” value with Tenebrio molitor L is reported as “insecticidal activity”.
Regarding `CC1(COC(=O)C2CCC2)C(OC(=O)C2CCC2)CCC2(C)C1CC(OC(=O)C1CCC1)C1(C)Oc3cc(-c4cccnc4)oc(=O)c3C(O)C21` (stereo not shown) [Compound 219], the “death rate of larvae” value in the experiment on Helicoverpa armigera is “not less than 80%”.
